Patent EP1339725B1, “DNA METHYL TRANSFERASE INHIBITORS” (priority 2000, dated 2002)

Assays:
[1] = molecular target: Brucella abortus CcrM (Brucella abortus, UniProt Q2YMK2); type: biochemical
[2] = system: Caulobacter crescentus (CB15N); assay: Caulobacter crescentus cell growth assay; type: cell-based; conditions: PYE media with 200 µg/mL ampicillin, 30°C, growth monitored at 630 nm up to 22 hours
[3] = system: Bacillus subtilis (ATCC #33234); assay: Bacillus subtilis cell growth assay; type: cell-based; conditions: LB media without antibiotics, 37°C, growth monitored up to 7.5 hours

Chain of Brucella abortus CcrM (Q2YMK2 whole entry, looked up): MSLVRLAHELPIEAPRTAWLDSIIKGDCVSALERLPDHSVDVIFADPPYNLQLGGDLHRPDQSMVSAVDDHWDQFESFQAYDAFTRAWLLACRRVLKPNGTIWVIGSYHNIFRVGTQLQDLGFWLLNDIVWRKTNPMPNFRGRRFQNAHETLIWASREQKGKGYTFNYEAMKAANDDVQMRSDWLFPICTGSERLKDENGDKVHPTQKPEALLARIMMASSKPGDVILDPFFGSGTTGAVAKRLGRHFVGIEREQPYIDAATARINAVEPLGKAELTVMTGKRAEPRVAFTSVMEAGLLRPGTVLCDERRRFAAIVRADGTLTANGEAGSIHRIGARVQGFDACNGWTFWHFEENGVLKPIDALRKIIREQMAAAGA

| Compound | % reaction Brucella abortus CcrM Activity [1] [%] | IC50 [2] [µM] | IC50 [3] [µM] |
| --- | --- | --- | --- |
| Fc1ccc(B(Oc2cccc3cccnc23)c2ccc(F)cc2)cc1 [Compound 11ii, Di-(4-fluorophenyl)borinic acid 8-hydroxyquinoline ester] | 61 |  |  |
| c1cnc2c(OB(c3ccc4c(c3)OCO4)c3ccc4c(c3)OCO4)cccc2c1 [Compound 11vi, Di-(3,4-methylenedioxyphenyl)borinic acid 8-hydroxyquinoline ester] | 42 |  |  |
| Clc1ccc(B(Oc2ccc(Cl)c3cccnc23)c2ccc(Cl)cc2)cc1 [Compound 13iii, Di-(p-chlorophenyl)borinic acid 5-chloro-8-hydroxyquinaline ester] | 81 |  |  |
| NCCOB(c1ccc(F)cc1)c1ccc(F)cc1 [Compound 19ii, Di-(4-fluorophenyl)borinic acid ethanolamine ester] | 8 |  |  |
| c1ccc(B(OCc2ccccn2)c2ccccc2)cc1 [Compound 16i, Diphenylborinic acid pyridine-2-methanol] | 93 |  |  |
| Diphenylborinic acid 2-amino-1-phenylpropanol [Compound 17i] | 114 | > 100 | > 100 |
| Clc1ccc(B(Oc2cccc3cccnc23)c2ccc(Cl)cc2)cc1 [Compound 11iii, Di-(4-chlorophenyl)borinic acid 8-hydroxyquinoline ester] | 61 |  |  |
| c1ccc(B(OC[C@@H]2CCCN2)c2ccccc2)cc1 [Compound 18i, Diphenylborinic acid (S)-(+)-pyrrolidine-2-methanol] | 81 | > 100 | > 100 |
| COc1ccc(B(Oc2cccc3ccc(C)nc23)c2ccc(OC)cc2)cc1 [Compound 12vii, Di-(4-methoxyphenyl)borinic acid 8-hydroxyquinaldine ester] | 56 |  |  |
| Cc1ccc2cccc(OB(c3ccc(F)cc3)c3ccc(F)cc3)c2n1 [Compound 12ii, Di-(p-fluorophenyl)borinic acid 8-hydroxyquinaldine ester] | 17 |  |  |
| c1csc(B(Oc2cccc3cccnc23)c2cccs2)c1 [Compound 11viii, Di-(2-thienyl)borinic acid 8-hydroxyquinoline ester] | 74 |  |  |
| Cc1ccc2cccc(OB(c3ccc(Cl)cc3)c3ccc(Cl)cc3)c2n1 [Compound 12iii, Di-(p-chlorophenyl)borinic acid 8-hydroxyquinaldine ester] | 40 |  |  |
| Fc1ccc(B(Oc2ccc(Cl)c3cccnc23)c2ccc(F)cc2)cc1 [Compound 13ii, Di-(p-fluorophenyl)borinic acid 5-chloro-8-hydroxyquinaline ester] | 55 |  |  |
| O=[N+]([O-])c1ccc(OB(c2ccc3c(c2)OCO3)c2ccc3c(c2)OCO3)c2ncccc12 [Compound 14vi, Di-(3,4-methylenedioxyphenyl)borinic acid 8-hydroxy-5-nitroquinoline ester] | 21 |  |  |
